Source: patent US7807624B2, “Methods and compositions for promoting attachment of cells of endothelial cell lineage to medical devices” (Affinergy, Inc., priority 2006, dated 2010)
Values belong to the compound of their own block, whether it stands above or below them. Where a SMILES comes first, the peptide text is derived from it.

What was measured:
[1] = system: cells of endothelial cell lineage
Description: In this illustrative example, cells of endothelial cell lineage used as target cells for the selection and screening process were human adipose-derived stem cells (“ADAS cells”). […] Fibroblasts (16 Lu fibroblast cell line) were used as non-target cells in the selection and screening process.
These peptides were tested in a variety of assay formats for binding specificity against a panel of cells and cell lines to compare binding to cells of endothelial cell lineage (e.g., human umbilical vein endothelial cells, human coronary artery endothelial cells, porcine coronary artery endothelial cells, and human endothelial progenitor cells) versus binding to cells of an origin other than endothelial cell lineage (e.g., human artery smooth muscle cells, porcine artery smooth muscle cells, platelets, and other mammalian cell lines).

[2] = Phage display selection and ELISA-type peptide binding to teflon
Source text: (§1) For example, a variety of different phage display libraries were screened for peptides that bind to a selected target substrate (e.g., a substrate selected to find a binding domain useful in the present invention). The substrate was either bound to or placed in (depending on the selected substrate) the wells of a 96 well microtiter plate. Nonspecific binding sites on the well surface of the polystyrene microtiter plate were blocked with a buffer containing 1% bovine serum albumin after overnight incubation at 4° C. The wells were then washed 5 times with a buffer containing phosphate buffered saline with Tween™ 20 (“PBS-T”). […] To detect phage that specifically bind to the selected substrate, enzyme-linked immunosorbent (ELISA-type) assays were performed using an anti-phage antibody conjugated to a detector molecule, followed by the detection and quantitation of the amount of detector molecule bound in the assay.
(§2) Relative binding strengths of the peptides were determined by testing serial dilutions of the peptide for binding to the selected substrate (as compared to a substrate used as a negative control; i.e. a substrate other than the selected substrate). Plotting the absorbance observed across the concentration range for each peptide sequence yielded a binding curve and rough dissociation constant (“KD”) of the peptides to its target substrate. […]

[3] = Phage display selection and ELISA-type peptide binding to polystyrene
Source text: For example, a variety of different phage display libraries were screened for peptides that bind to a selected target substrate (e.g., a substrate selected to find a binding domain useful in the present invention). The substrate was either bound to or placed in (depending on the selected substrate) the wells of a 96 well microtiter plate. Nonspecific binding sites on the well surface of the polystyrene microtiter plate were blocked with a buffer containing 1% bovine serum albumin after overnight incubation at 4° C. The wells were then washed 5 times with a buffer containing phosphate buffered saline with Tween™ 20 (“PBS-T”). Each library was diluted in PBS-T and added at a concentration of 10^10 pfu/ml in a total volume of 100 μl. After 3 hour of incubation at room temperature with shaking at 50 rpm, unbound phage were removed by multiple washes with PBS-T. Bound phage were recovered by denaturation with 0.1 M glycine buffer, pH2.2. The eluted phage were neutralized with phosphate buffer, and then added to E. coli cells in growth media. The cell and phage-containing media was cultured by incubation overnight at 37° C. in a shaker at 200 rpm. Phage-containing supernatant was harvested from the culture after centrifuging the culture. […] To detect phage that specifically bind to the selected substrate, enzyme-linked immunosorbent (ELISA-type) assays were performed using an anti-phage antibody conjugated to a detector molecule, followed by the detection and quantitation of the amount of detector molecule bound in the assay.
as §2

[4] = Phage display selection and ELISA-type peptide binding to polyurethane
Source text: as §1, §2

[5] = Peptide binding to titanium beads (phage selection, ELISA-type dilution series)
Description: As a specific illustrative example, titanium (in percent: Ti6Al4V) beads of approximately 5/32 of an inch diameter were washed with 70% ethanol, 40% nitric acid, distilled water, 70% ethanol, and acetone to remove any surface contaminants. One titanium bead was placed per well of 96-well polypropylene plate. Nonspecific binding sites on the titanium and the surface of the polypropylene were blocked with 1% bovine serum albumin (BSA) in PBS. The plate was incubated for 1 hour at room temperature with shaking at 50 rpm. The wells were then washed 5 times with 300 μl of PBS. Each library was diluted in PBS+1% BSA and was added at a concentration of 10^10 pfu/ml in a total volume of 250 μl. […]
as §2
As a specific example, titanium beads were blocked with 1% BSA in PBS for 30 minutes at room temperature. […] Beads were washed two times with PBS-T. PNPP (p-nitrophenyl phosphate) was used to develop the assay, and the absorbance was recorded at 405 nm. […]

- EC50 [1]: < 10 µM
Compound: CC(C)C[C@H](NC(=O)[C@H](C)NC(=O)[C@H](C)NC(=O)[C@H](CO)NC(=O)[C@@H]1CCCN1C(=O)[C@H](CCCNC(=N)N)NC(=O)[C@H](CC(C)C)NC(=O)[C@H](CC(C)C)NC(=O)[C@H](CO)NC(=O)[C@@H](NC(=O)[C@H](Cc1c[nH]cn1)NC(=O)[C@H](CCC(N)=O)NC(=O)[C@H](CS)NC(=O)[C@H](CO)NC(=O)[C@H](CO)NC(=O)[C@@H](N)CO)C(C)C)C(=O)NCC(=O)N1CCC[C@H]1C(=O)N[C@@H](CC(=O)O)C(=O)N[C@@H](CC(N)=O)C(=O)N[C@@H](CS)C(=O)N[C@@H](CS)C(=O)N[C@@H](CO)C(=O)N[C@@H](CCCNC(=N)N)C(=O)NCC(=O)N[C@@H](CO)C(=O)N[C@@H](CO)C(=O)NCC(=O)N[C@@H](CCCCN)C(=O)O [SEQ ID NO:95] (H-SSSCQHVSLLRPSAALGPDNCCSRGSSGK-OH; N-terminus and C-terminus assumed)

- EC50 [1]: < 10 µM
Compound: CC(C)C[C@H](NC(=O)[C@H](C)NC(=O)[C@H](C)NC(=O)[C@H](CO)NC(=O)[C@@H]1CCCN1C(=O)[C@H](CCCNC(=N)N)NC(=O)[C@H](CC(C)C)NC(=O)[C@H](CC(C)C)NC(=O)[C@H](CO)NC(=O)[C@@H](NC(=O)[C@H](Cc1c[nH]cn1)NC(=O)[C@H](CCC(N)=O)NC(=O)[C@H](CS)NC(=O)[C@H](CO)NC(=O)[C@H](CO)NC(=O)[C@@H](N)CO)C(C)C)C(=O)NCC(=O)N1CCC[C@H]1C(=O)N[C@@H](CC(=O)O)C(=O)N[C@@H](CC(N)=O)C(=O)N[C@@H](CS)C(=O)N[C@@H](CO)C(=O)N[C@@H](CCCNC(=N)N)C(=O)NCC(=O)N[C@@H](CO)C(=O)N[C@@H](CO)C(=O)NCC(=O)N[C@@H](CCCCN)C(=O)O [SEQ ID NO:96] (H-SSSCQHVSLLRPSAALGPDNCSRGSSGK-OH; N-terminus and C-terminus assumed)

- binding specificity for teflon [2]: specifically bind to teflon
Compound: CIKYPFLYCCLLSLFLFS [SEQ ID NO:56]

- binding specificity for teflon [2]: specifically bind to teflon
Compound: CWSRFRLFMLFCMFYLVS [SEQ ID NO:55]

Compound: FFGFDVYDMSNAL [SEQ ID NO:19]
- binding specificity for polystyrene [3]: substantially retain binding specificity for polystyrene

Compound: FFPSSWYSHLGVL [SEQ ID NO:18]
- binding specificity for polystyrene [3]: substantially retain binding specificity for polystyrene

Compound: FSYSVSYAHPEGL [SEQ ID NO:21]
- binding specificity for polystyrene [3]: substantially retain binding specificity for polystyrene

- binding specificity for polyurethane [4]: specifically binds to polyurethane
Compound: SCYVNGHNSVWWVFWGVS (SCYVNGHNSVWVVVFWGVS) [SEQ ID NO:23]

- reduction in binding ([5]; as compared to SEQ ID NO:73 (two cysteines substituted by serine)): 10 fold
Compound: SDKSHKHWYSYESKYGGS [SEQ ID NO:74]
- binding specificity for titanium [5]: substantially retained binding specificity
